The target in assay [1] is dopamine D2 receptor (Homo sapiens, UniProt P14416). Description: D3/D2 agonist assay, functional response at D2 receptor. Format: cell-based. The following applies: at 1000 nM; relative to the maximal effect of pramipexole. On the procedure:
(§1) Activity at the dopamine D3 receptor may be determined using the methods described in WO 2004/052372. […] Selectivity is calculated as the D2 EC50 value divided by the D3 EC50 value. Where the value of the D2 EC50 was >10000, a figure of 10000 was used in the calculation.
(§2) Against the D2 receptor this compound gave only a 28% repsonse (relative to the maximal effect of pramipexole) at 1000 nM. Suitable auxiliary active agents for use in the combinations of the present invention include: • 1) Naturally occurring or synthetic prostaglandins or esters thereof. Suitable prostaglandins for use herein include compounds such as alprostadil, prostaglandin E1, prostaglandin E0, 13,14-dihydroprosta glandin E1, prostaglandin E2, eprostinol, natural synthetic and semi-synthetic prostaglandins and derivatives thereof including those described in WO-00033825 and/or U.S. Pat. No. 6,037,346 issued on 14 Mar. 2000 all incorporated herein by reference, PGE0, PGE1, PGA1, PGB1, PGF1 α, 19-hydroxy PGA1, 19-hydroxy-PGB1, PGE2, PGB2, 19-hydroxy-PGA2, 19-hydroxy-PGB2, PGE3α, carboprost tromethamine dinoprost, tromethamine, dinoprostone, lipo prost, gemeprost, metenoprost, sulprostune, tiaprost and moxisylate; • 2) α-adrenergic receptor antagonist compounds also known as α-adrenoceptors or α-receptors or α-blockers. […]

Assay [2] has as its target dopamine D3 receptor (Homo sapiens, UniProt P35462). The assay is described as follows: D3/D2 agonist assay, functional potency at D3 receptor. Format: cell-based. On the procedure: as §1, §2

Molecules are shown by their SMILES.

Broadly, the EC50 is the concentration that produces a half-maximal response. Usually Emax stands for the size of the effect at its maximum, as opposed to the concentration needed.

dopamine D3 receptor, sequence (P35462 whole entry, species assumed): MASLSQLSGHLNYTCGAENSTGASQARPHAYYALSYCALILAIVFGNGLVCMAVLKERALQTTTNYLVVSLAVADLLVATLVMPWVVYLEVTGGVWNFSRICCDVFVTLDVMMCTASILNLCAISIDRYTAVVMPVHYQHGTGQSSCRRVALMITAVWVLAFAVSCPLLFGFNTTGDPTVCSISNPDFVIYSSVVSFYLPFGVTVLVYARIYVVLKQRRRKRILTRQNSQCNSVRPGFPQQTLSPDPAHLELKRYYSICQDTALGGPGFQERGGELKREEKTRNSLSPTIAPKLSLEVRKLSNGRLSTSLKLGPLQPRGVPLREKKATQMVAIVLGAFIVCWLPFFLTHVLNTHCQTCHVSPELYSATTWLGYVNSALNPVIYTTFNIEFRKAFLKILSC
dopamine D2 receptor, sequence (P14416 whole entry): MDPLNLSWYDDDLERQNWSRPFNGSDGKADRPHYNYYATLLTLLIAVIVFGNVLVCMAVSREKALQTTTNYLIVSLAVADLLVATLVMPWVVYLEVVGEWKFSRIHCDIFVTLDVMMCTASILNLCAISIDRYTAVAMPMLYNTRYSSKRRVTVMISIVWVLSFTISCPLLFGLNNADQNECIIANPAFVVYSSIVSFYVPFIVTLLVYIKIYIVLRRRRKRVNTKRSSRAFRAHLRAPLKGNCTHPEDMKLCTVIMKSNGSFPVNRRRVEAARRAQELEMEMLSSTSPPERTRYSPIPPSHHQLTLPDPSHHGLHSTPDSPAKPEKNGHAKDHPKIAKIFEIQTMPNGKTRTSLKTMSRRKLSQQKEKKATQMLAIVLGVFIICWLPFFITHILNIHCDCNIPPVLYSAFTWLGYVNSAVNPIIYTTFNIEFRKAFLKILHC

`CCCN1CC(c2cccc3[nH]ncc23)C1` [Example 13, 4-(1-propylazetidin-3-yl)-1H-indazole]: in assay [1], the “response against the D2 receptor” value is reported as 28%. Moreover, in assay [2] (methods described in WO 2004/052372, read-out: functional potency at the D3 receptor, expressed as an EC50), the EC50 worked out at 38 nM. Further, in assay [2] (relative to the maximal effect of standard agent pramipexole, read-out: Emax (maximal response value) at the D3 receptor), the Emax amounted to 74%.

Values taken from patent publication US20050267096A1, “New indazole and indolone derivatives and their use pharmaceuticals” (Pfizer Inc, priority 2004, published 2005).
